# Data from US20120076899A1, “SHELF STABLE MONATIN SWEETENED BEVERAGE” (Cargill, Incorporated, priority 2009, published 2012).
# Experiments:
# [1] = Total indole concentrations over range of dissolved oxygen concentrations (light box storage); type: physicochemical; details: continuous light ~2200 lux, 28° C., pH 2.8-3.0
# Description: (§1) Synthetic R,R-monatin containing approximately 95.4% R,R-monatin monopotassium salt (dry basis) was obtained from CSIR (Modderfontein, South Africa). About 100 mg/L of this monatin was placed in a buffered solution at a pH of about 2.8-3.0 comprising 9 mM citric acid-trisodium citrate in high purity water and preserved with about 150 mg/L sodium benzoate. Dissolved O2 levels were either increased by bubbling compressed air or reduced by bubbling N2 (99.9% purity) through these samples until the target O2 concentrations were achieved. Dissolved O2 levels were determined at 20° C. using a FOXY fluorescence quenching O2 analyzer from Ocean Optics (Dunedin, Fla.). Samples were stored in clear, glass ampules (˜10 mL) after O2 adjustment and heat-sealed to create an air-tight enclosure. The samples were then exposed to light continuously (24 hours per day) in a light box (˜2200 lux light intensity) configured with a rotating carousel to provide even illumination. The source of light was provided by ultra-violet (UV) light wavelength transmitting bulbs and standard fluorescent bulbs. The heat produced by the lights warmed the samples to a temperature of about 28° C. Duplicate samples of each treatment were analyzed weekly for total indole concentrations via the following method.
# (§2) Total indole (monatin and its intramolecular rearrangement products, monatin lactone and monatin lactam) concentrations were quantified by reversed phase HPLC at 40° C. using an Agilent Zorbax Eclipse C18 column with UV detection at 280 nm by PDA. The compounds were eluted by a gradient mobile phase consisting of (A) 1:1 methanol and acetonitrile (v:v) with 0.3% formic acid and 10 mM ammonium formate and (B) 0.3% formic acid in water with 10 mM ammonium formate. The integrated peak areas for the three (3) compounds were expressed in terms of monatin concentration (mg/L) based on a standard curve prepared for monatin. Thus, the extinction coefficient for monatin was applied to estimate concentrations of monatin lactone and monatin lactam since standards for these compounds were unavailable.
# [2] = Total indole concentrations under various light, O2 and EMIQ conditions; type: physicochemical
# Description: as §1, with “35” for “100”, “benzoate. To some samples 200 ppm SANMELIN™ AO-3000 enzymatically modified isoquercitrin (EMIQ) (San-Ei Gen F.F.I.—Osaka, Japan) was added.” for “benzoate.”, “then either stored in the dark, or” for “then”
# as §2
structure (smiles),measurement,setting,value
"NC(CC(O)(Cc1c[nH]c2ccccc12)C(=O)O)C(=O)O (centres unmarked) [R,R-monatin, 2-hydroxy-2-(indol-3-ylmethyl)-4-aminoglutaric acid]",Total Indole Concentration,"[1]; 0.4 mg/L O2, 0 Days",104.0 mg/L
same,Total Indole Concentration,"[1]; 0.4 mg/L O2, 7 Days",98.7 mg/L
same,Total Indole Concentration,"[1]; 0.4 mg/L O2, 14 Days",102.9 mg/L
same,Total Indole Concentration,"[1]; 0.4 mg/L O2, 21 Days",97.5 mg/L
same,Total Indole Concentration,"[1]; 0.4 mg/L O2, 28 Days",96.2 mg/L
same,Total Indole Concentration,"[1]; 1.5 mg/L O2, 0 Days",104.0 mg/L
same,Total Indole Concentration,"[1]; 1.5 mg/L O2, 7 Days",97.1 mg/L
same,Total Indole Concentration,"[1]; 1.5 mg/L O2, 14 Days",90.6 mg/L
same,Total Indole Concentration,"[1]; 1.5 mg/L O2, 21 Days",93.3 mg/L
same,Total Indole Concentration,"[1]; 1.5 mg/L O2, 28 Days",76.0 mg/L
same,Total Indole Concentration,"[1]; 4.0 mg/L O2, 0 Days",104.0 mg/L
same,Total Indole Concentration,"[1]; 4.0 mg/L O2, 7 Days",94.6 mg/L
same,Total Indole Concentration,"[1]; 4.0 mg/L O2, 14 Days",71.3 mg/L
same,Total Indole Concentration,"[1]; 4.0 mg/L O2, 21 Days",58.0 mg/L
same,Total Indole Concentration,"[1]; 4.0 mg/L O2, 28 Days",14.6 mg/L
same,Total Indole Concentration,"[1]; 6.5 mg/L O2, 0 Days",104.0 mg/L
same,Total Indole Concentration,"[1]; 6.5 mg/L O2, 7 Days",97.0 mg/L
same,Total Indole Concentration,"[1]; 6.5 mg/L O2, 14 Days",75.7 mg/L
same,Total Indole Concentration,"[1]; 6.5 mg/L O2, 21 Days",54.7 mg/L
same,Total Indole Concentration,"[1]; 6.5 mg/L O2, 28 Days",0.0 mg/L
same,Total Indole Concentration,"[1]; 8.3 mg/L O2, 0 Days",104.0 mg/L
same,Total Indole Concentration,"[1]; 8.3 mg/L O2, 7 Days",89.6 mg/L
same,Total Indole Concentration,"[1]; 8.3 mg/L O2, 14 Days",49.9 mg/L
same,Total Indole Concentration,"[1]; 8.3 mg/L O2, 21 Days",21.3 mg/L
same,Total Indole Concentration,"[1]; 8.3 mg/L O2, 28 Days",0.0 mg/L
same,Total Indole Concentration,"[2]; Light Exposure NO, O2 8.3 mg/L, EMIQ 0 ppm, 0 Days",36.3 mg/L
same,Total Indole Concentration,"[2]; Light Exposure NO, O2 8.3 mg/L, EMIQ 0 ppm, 7 Days",36.5 mg/L
same,Total Indole Concentration,"[2]; Light Exposure NO, O2 8.3 mg/L, EMIQ 0 ppm, 14 Days",37.0 mg/L
same,Total Indole Concentration,"[2]; Light Exposure NO, O2 8.3 mg/L, EMIQ 0 ppm, 21 Days",41.0 mg/L
same,Total Indole Concentration,"[2]; Light Exposure NO, O2 8.3 mg/L, EMIQ 0 ppm, 28 Days",37.5 mg/L
same,Total Indole Concentration,"[2]; Light Exposure NO, O2 8.3 mg/L, EMIQ 200 ppm, 0 Days",35.5 mg/L
same,Total Indole Concentration,"[2]; Light Exposure NO, O2 8.3 mg/L, EMIQ 200 ppm, 7 Days",35.3 mg/L
same,Total Indole Concentration,"[2]; Light Exposure NO, O2 8.3 mg/L, EMIQ 200 ppm, 14 Days",43.3 mg/L
same,Total Indole Concentration,"[2]; Light Exposure NO, O2 8.3 mg/L, EMIQ 200 ppm, 21 Days",36.2 mg/L
same,Total Indole Concentration,"[2]; Light Exposure NO, O2 8.3 mg/L, EMIQ 200 ppm, 28 Days",33.5 mg/L
same,Total Indole Concentration,"[2]; Light Exposure NO, O2 <0.5 mg/L, EMIQ 0 ppm, 0 Days",34.7 mg/L
same,Total Indole Concentration,"[2]; Light Exposure NO, O2 <0.5 mg/L, EMIQ 0 ppm, 7 Days",32.8 mg/L
same,Total Indole Concentration,"[2]; Light Exposure NO, O2 <0.5 mg/L, EMIQ 0 ppm, 14 Days",34.4 mg/L
same,Total Indole Concentration,"[2]; Light Exposure NO, O2 <0.5 mg/L, EMIQ 0 ppm, 21 Days",32.8 mg/L
same,Total Indole Concentration,"[2]; Light Exposure NO, O2 <0.5 mg/L, EMIQ 0 ppm, 28 Days",35.2 mg/L
same,Total Indole Concentration,"[2]; Light Exposure NO, O2 <0.5 mg/L, EMIQ 200 ppm, 0 Days",34.7 mg/L
same,Total Indole Concentration,"[2]; Light Exposure NO, O2 <0.5 mg/L, EMIQ 200 ppm, 7 Days",32.8 mg/L
same,Total Indole Concentration,"[2]; Light Exposure NO, O2 <0.5 mg/L, EMIQ 200 ppm, 14 Days",34.4 mg/L
same,Total Indole Concentration,"[2]; Light Exposure NO, O2 <0.5 mg/L, EMIQ 200 ppm, 21 Days",32.8 mg/L
same,Total Indole Concentration,"[2]; Light Exposure NO, O2 <0.5 mg/L, EMIQ 200 ppm, 28 Days",35.2 mg/L
same,Total Indole Concentration,"[2]; Light Exposure YES, O2 8.3 mg/L, EMIQ 0 ppm, 0 Days",36.3 mg/L
same,Total Indole Concentration,"[2]; Light Exposure YES, O2 8.3 mg/L, EMIQ 0 ppm, 7 Days",15.3 mg/L
same,Total Indole Concentration,"[2]; Light Exposure YES, O2 8.3 mg/L, EMIQ 0 ppm, 14 Days",4.5 mg/L
same,Total Indole Concentration,"[2]; Light Exposure YES, O2 8.3 mg/L, EMIQ 0 ppm, 21 Days",0.0 mg/L
same,Total Indole Concentration,"[2]; Light Exposure YES, O2 8.3 mg/L, EMIQ 0 ppm, 28 Days",0.0 mg/L
same,Total Indole Concentration,"[2]; Light Exposure YES, O2 8.3 mg/L, EMIQ 200 ppm, 0 Days",34.7 mg/L
same,Total Indole Concentration,"[2]; Light Exposure YES, O2 8.3 mg/L, EMIQ 200 ppm, 7 Days",32.7 mg/L
same,Total Indole Concentration,"[2]; Light Exposure YES, O2 8.3 mg/L, EMIQ 200 ppm, 14 Days",28.4 mg/L
same,Total Indole Concentration,"[2]; Light Exposure YES, O2 8.3 mg/L, EMIQ 200 ppm, 21 Days",26.0 mg/L
same,Total Indole Concentration,"[2]; Light Exposure YES, O2 8.3 mg/L, EMIQ 200 ppm, 28 Days",22.5 mg/L
same,Total Indole Concentration,"[2]; Light Exposure YES, O2 <0.5 mg/L, EMIQ 0 ppm, 0 Days",36.3 mg/L
same,Total Indole Concentration,"[2]; Light Exposure YES, O2 <0.5 mg/L, EMIQ 0 ppm, 7 Days",35.9 mg/L
same,Total Indole Concentration,"[2]; Light Exposure YES, O2 <0.5 mg/L, EMIQ 0 ppm, 14 Days",36.0 mg/L
same,Total Indole Concentration,"[2]; Light Exposure YES, O2 <0.5 mg/L, EMIQ 0 ppm, 21 Days",38.8 mg/L
same,Total Indole Concentration,"[2]; Light Exposure YES, O2 <0.5 mg/L, EMIQ 0 ppm, 28 Days",34.6 mg/L
same,Total Indole Concentration,"[2]; Light Exposure YES, O2 <0.5 mg/L, EMIQ 200 ppm, 0 Days",34.7 mg/L
same,Total Indole Concentration,"[2]; Light Exposure YES, O2 <0.5 mg/L, EMIQ 200 ppm, 7 Days",35.8 mg/L
same,Total Indole Concentration,"[2]; Light Exposure YES, O2 <0.5 mg/L, EMIQ 200 ppm, 14 Days",33.9 mg/L
same,Total Indole Concentration,"[2]; Light Exposure YES, O2 <0.5 mg/L, EMIQ 200 ppm, 21 Days",35.1 mg/L
same,Total Indole Concentration,"[2]; Light Exposure YES, O2 <0.5 mg/L, EMIQ 200 ppm, 28 Days",29.3 mg/L
